Assay results reported in patent US5679671A, “Amino acid derivative” (Eisai Co., Ltd., priority 1993, dated 1997).
pIC50: −log10 of the molar value.

Molecular target: T1, ACE (Rattus norvegicus, UniProt P47820)
T1 construct: membrane fraction prepared from rat lung; from tissue; host or cells: rat lung, membrane fraction (method of Wu-Wong et al.)
T1 sequence (P47820 36-1313): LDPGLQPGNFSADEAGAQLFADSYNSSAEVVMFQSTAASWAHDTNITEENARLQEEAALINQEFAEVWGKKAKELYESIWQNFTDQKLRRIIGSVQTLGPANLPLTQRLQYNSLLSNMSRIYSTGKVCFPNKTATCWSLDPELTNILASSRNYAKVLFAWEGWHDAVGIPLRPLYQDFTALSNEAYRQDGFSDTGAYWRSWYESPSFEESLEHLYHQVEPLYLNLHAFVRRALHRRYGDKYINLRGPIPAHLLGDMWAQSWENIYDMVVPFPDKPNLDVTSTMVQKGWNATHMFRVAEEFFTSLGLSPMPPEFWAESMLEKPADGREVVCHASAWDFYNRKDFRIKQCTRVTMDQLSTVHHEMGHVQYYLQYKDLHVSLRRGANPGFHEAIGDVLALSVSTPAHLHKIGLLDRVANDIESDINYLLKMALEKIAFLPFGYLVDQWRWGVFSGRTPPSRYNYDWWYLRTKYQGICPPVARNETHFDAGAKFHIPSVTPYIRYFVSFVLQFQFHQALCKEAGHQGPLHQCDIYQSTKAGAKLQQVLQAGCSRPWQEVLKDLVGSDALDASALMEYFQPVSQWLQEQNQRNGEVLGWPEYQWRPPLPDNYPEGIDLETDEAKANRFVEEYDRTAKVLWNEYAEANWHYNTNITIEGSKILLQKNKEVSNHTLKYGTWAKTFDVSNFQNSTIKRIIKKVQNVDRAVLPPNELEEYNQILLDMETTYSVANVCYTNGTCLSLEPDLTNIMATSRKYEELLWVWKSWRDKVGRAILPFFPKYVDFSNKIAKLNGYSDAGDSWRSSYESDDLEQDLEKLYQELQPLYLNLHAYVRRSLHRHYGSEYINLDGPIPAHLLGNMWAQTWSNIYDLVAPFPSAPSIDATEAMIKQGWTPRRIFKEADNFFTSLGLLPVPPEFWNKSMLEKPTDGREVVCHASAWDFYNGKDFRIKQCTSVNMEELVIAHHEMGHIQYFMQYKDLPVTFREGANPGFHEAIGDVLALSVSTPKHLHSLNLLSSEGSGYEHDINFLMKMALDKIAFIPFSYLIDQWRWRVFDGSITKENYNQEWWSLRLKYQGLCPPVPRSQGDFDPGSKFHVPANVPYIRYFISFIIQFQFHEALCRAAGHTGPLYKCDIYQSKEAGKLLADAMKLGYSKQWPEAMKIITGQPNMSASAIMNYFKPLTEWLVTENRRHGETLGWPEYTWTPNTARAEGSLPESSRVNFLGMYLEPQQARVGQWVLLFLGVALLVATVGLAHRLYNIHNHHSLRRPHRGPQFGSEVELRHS
Assay: ACE inhibition activity (Experiment E-1)
Assay type: biochemical
Settings: rat lung membrane fraction, pH 8.3
Method: As a source of the enzyme ACE, a membrane fraction prepared from rat lung in accordance with the method of Wu-Wong et al. (Characterization of Endthelin Converting Enzyme in Rat Lung., Jinshyum R. Wu-Wong, Gerald, P. Budzik, Edward M. Devine and Terry J. Opgenorth, Biochem. Biophys. Res. Commun., 1990, 171, 1291-1296.) was used. The ACE activity was determined with the use of a modification (modified to a borate buffer pH 8.3) of the method of Cushman and Cheung (Spectrophotometric Assay and Properties of the Angiotensin-Converting Enzyme of Rabbit Lung., Cushman D. W. and Cheung H. S., 1971, 20, 1637-1648.). Now the procedure will be briefly described.
In the presence of ACE, the hippurate liberated from hippuryl-histidyl-leucine (Hippuryl-His-Leu (PeptideInstitute Inc., Japan)) was extracted with ethyl acetate and then the absorbance was measured at a wavelength of 228 nm.
To determine the NEP inhibition activity and the ACE inhibition activity, the inhibitor was added to the assay systems of both enzyme activities as described above in such a manner as to give the final concentrations of 1, 3, 10, 30, 100, […] and 1000 nM and inhibition curves were prepared. Then the concentration at which 50% inhibition was achieved was taken as IC50.

Row | pIC50 | SMILES
1 | 7.96 | CC[C@H](C)[C@H](S)C(=O)N[C@H]1Cc2ccc(-c3ccccc3)cc2[C@H]2CCC[C@@H](C(=O)O)N2C1=O [Example C-14, [4S-[4α,7α(R*),12bβ]]-7-[[(2S,3S)-3-Methyl-1-oxo-2-thiopentyl]amino]-6-oxo-11-phenyl-1,2,3,4,6,7,8,12b-octahydropyrido[2,1-a][2]benzazepine-4-carboxylic acid]
2 | 8.00 | CC(C)[C@H](S)C(=O)N[C@H]1Cc2ccc(-c3ccccc3)cc2[C@H]2CCC[C@@H](C(=O)O)N2C1=O [Example E-10, [4S-[4α,7α(R*),12bβ]]-7-[(S)-2-Mercapto-3-methylbutyrylamino]-6-oxo-11-phenyl-1,2,3,4,6,7,8,12b-octahydropyrido[2,1-a][2]benzazepine-4-carboxylic acid]
3 | 8.05 | O=C(N[C@H]1Cc2ccccc2[C@H]2CCC[C@@H](C(=O)O)N2C1=O)[C@@H](S)Cc1ccccc1 [Comp. cpd. E-1, [4S-[4α,7α(R*),12bβ]]-7-[(1-oxo-2-(S)-thio-3-phenyl-propyl)amino]-1,2,3,4,6,7,8,12b-octahydro-6-oxopyrido-[2,1-a][2]benzazepine-4-carboxylic acid, reference compound]
